Laboratory results from ChEMBL document CHEMBL3603831, “Discovery of Potent 17β-Hydroxywithanolides for Castration-Resistant Prostate Cancer by High-Throughput Screening of a Natural Products Library for Androgen-Induced Gene Expression Inhibitors” (J Med Chem, 2015).
The source made the active and inactive calls. The calls are words filed in the database; no cut-off is given here.

Columns and labels:
NCI-H460 = test: Cytotoxicity against human NCI-H460 cells assessed as inhibition of cell proliferation/survival after 72 hrs by resazurin dye reduction assay; assay type: functional, cell-based; settings: NCI-H460, 72 h
Androgen receptor [1] = molecular target: T1, Androgen receptor (Homo sapiens, UniProt P10275); test: Inhibition of androgen receptor in human LNCAP cells assessed as inhibition of DHT-induced KLK2 gene expression by Array Plate assay; assay type: cell-based
T1 sequence (P10275 whole entry): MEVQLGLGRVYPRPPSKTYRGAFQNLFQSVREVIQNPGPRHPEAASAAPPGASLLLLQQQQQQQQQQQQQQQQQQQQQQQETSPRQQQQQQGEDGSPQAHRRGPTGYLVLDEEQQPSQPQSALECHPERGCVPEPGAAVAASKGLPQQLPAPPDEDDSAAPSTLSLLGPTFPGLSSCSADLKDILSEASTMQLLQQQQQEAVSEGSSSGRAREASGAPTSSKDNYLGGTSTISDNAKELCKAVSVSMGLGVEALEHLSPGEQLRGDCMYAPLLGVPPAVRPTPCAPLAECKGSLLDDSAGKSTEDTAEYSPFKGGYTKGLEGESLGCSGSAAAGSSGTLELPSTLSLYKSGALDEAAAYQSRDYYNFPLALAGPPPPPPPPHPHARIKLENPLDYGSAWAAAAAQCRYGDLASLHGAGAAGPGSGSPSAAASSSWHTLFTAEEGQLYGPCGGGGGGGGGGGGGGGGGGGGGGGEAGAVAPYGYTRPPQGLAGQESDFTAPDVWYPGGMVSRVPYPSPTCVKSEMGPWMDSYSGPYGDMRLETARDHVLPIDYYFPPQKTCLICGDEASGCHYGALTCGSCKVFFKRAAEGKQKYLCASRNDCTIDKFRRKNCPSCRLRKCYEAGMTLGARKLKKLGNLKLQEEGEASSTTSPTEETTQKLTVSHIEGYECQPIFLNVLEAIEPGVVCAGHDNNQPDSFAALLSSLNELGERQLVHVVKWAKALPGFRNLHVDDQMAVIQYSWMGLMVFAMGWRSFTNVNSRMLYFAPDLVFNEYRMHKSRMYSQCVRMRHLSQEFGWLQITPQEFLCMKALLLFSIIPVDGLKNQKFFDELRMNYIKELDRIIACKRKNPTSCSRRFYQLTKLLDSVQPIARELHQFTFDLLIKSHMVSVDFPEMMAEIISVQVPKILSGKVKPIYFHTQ

[2] = Toxicity in SCID mouse assessed as change in body weight measured every 3 to 5 days up to 18 days; assay type: organism-based; settings: in vivo
Androgen receptor [3] = molecular target: T1, Androgen receptor; test: Inhibition of androgen receptor in human LNCAP cells assessed as inhibition of DHT-induced SPDEF gene expression by Array Plate assay; assay type: cell-based
LNCaP [4] = test: Cytotoxicity against human LNCAP cells assessed as inhibition of cell proliferation/survival after 72 hrs by resazurin dye reduction assay; assay type: functional, cell-based
MCF7 = test: Cytotoxicity against human MCF7 cells assessed as inhibition of cell proliferation/survival after 72 hrs by resazurin dye reduction assay; assay type: functional, cell-based; settings: MCF7, 72 h
SF-268 = test: Cytotoxicity against human SF268 cells assessed as inhibition of cell proliferation/survival after 72 hrs by resazurin dye reduction assay; assay type: functional, cell-based; settings: SF-268, 72 h
PC-3 [5] = test: Cytotoxicity against human PC3 cells assessed as inhibition of cell proliferation/survival after 72 hrs by resazurin dye reduction assay; assay type: functional, cell-based; settings: PC-3, 72 h
HFF = test: Cytotoxicity against HFF assessed as inhibition of cell proliferation/survival after 72 hrs by resazurin dye reduction assay; assay type: cell-based; settings: Homo sapiens
[6] = molecular target: T2, Androgen receptor (Homo sapiens) (UniProt P10275); test: Competitive inhibition of androgen binding to androgen receptor (unknown origin) by invitrogen polar screen assay
T2 sequence (whole entry): T1 sequence (P10275 whole entry)

PC-3 [7] = test: Antitumor activity against human PC3 cells xenografted in SCID mouse assessed as tumor growth inhibition at 50 mg/kg, ip qd administered for 5 days followed by 2 days rest and again dose repetition up to 30 days measured after day 30 post dose relative to vehicle-treated control; assay type: functional; settings: PC-3, ip, read-out: TGI
Androgen receptor [8] = molecular target: T1, Androgen receptor; test: Inhibition of androgen receptor in human LNCAP cells assessed as inhibition of DHT-induced KLK3 gene expression by Array Plate assay; assay type: cell-based
[9] = Toxicity in sc dosed SCID mouse administered in trappsol once per day for 5 days followed by 2 days of rest and again dose repetition; assay type: organism-based; settings: in vivo
[10] = Tmax in SCID mouse at 50 mg/kg, ip; assay type: ADME, organism-based; settings: in vivo
LNCaP [11] = test: Antitumor activity against human LNCAP cells xenografted in sc dosed SCID mouse assessed as tumor growth inhibition administered in trappsol for five times per week up to two weeks measured twice per week; assay type: functional, organism-based
Plasma [12] = test: Drug uptake in SCID mouse plasma at 50 mg/kg, ip; assay type: ADME, organism-based; settings: in vivo
LNCaP [13] = test: Antitumor activity against human LNCAP cells xenografted in SCID mouse assessed as tumor growth inhibition at 15 to 25 mg/kg, sc coadministered with taxotere in trappsol for five times per week up to two weeks measured twice per week; assay type: functional, organism-based
PC-3 [14] = test: Antitumor activity against human PC3 cells xenografted in SCID mouse assessed as tumor growth inhibition at 26 to 40 mg/kg, ip coadministered with taxotere for five times per week up to two weeks measured twice per week; assay type: functional, organism-based
PC-3 [15] = test: Antitumor activity against human PC3 cells xenografted in ip dosed SCID mouse assessed as tumor growth inhibition for five times per week up to two weeks measured twice per week; assay type: functional, organism-based
Mus musculus [16] = test: Toxicity in SCID mouse xenografted with human PC3 cells assessed as mortality at 26 to 40 mg/kg, ip for five times per week up to two weeks; assay type: organism-based, PC-3; settings: in vivo
Mus musculus [17] = test: Toxicity in SCID mouse xenografted with human LNCAP cells assessed as mortality at 15 to 25 mg/kg, sc administered in trappsol for five times per week up to two weeks; assay type: organism-based; settings: in vivo
Serum = test: Drug uptake in SCID mouse serum at 25 mg/kg, sc administered in trappsol measured after 1 hr; assay type: ADME, organism-based; settings: in vivo
Plasma [18] = test: Drug uptake in SCID mouse plasma at 50 mg/kg administered through gastric gavage; assay type: ADME, organism-based; settings: in vivo, po
PC-3 [19] = test: Antitumor activity against human PC3 cells xenografted in SCID mouse assessed as tumor growth inhibition at 12 mg/kg, iv administered for five times per week up to two weeks measured twice per week; assay type: functional, organism-based

| Compound | IC50 (NCI-H460) | IC50 (Androgen receptor [1]) | IC50 (Androgen receptor [3]) | IC50 (LNCaP [4]) | IC50 (MCF7) | IC50 (SF-268) | IC50 (PC-3 [5]) | IC50 (HFF) | IC50 (Androgen receptor [8]) | further results |
| --- | --- | --- | --- | --- | --- | --- | --- | --- | --- | --- |
| CC(=O)OC[C@]12CC[C@H]3[C@@H](CC=C4CC=CC(=O)[C@@]43C)[C@]1(O)CC[C@@]2(O)[C@@](C)(O)[C@H]1CC(C)=C(C)C(=O)O1 | 1200 nM | 580 nM | 770 nM | 70 nM | 1900 nM | 3.4 µM | 130 nM | > 3.1 µM | 750 nM | MTD at 18 days [2]: 50 mg/kg; inhibition [6]: inactive; inhibition in vivo at 50 mg/kg (PC-3 [7]): 66% |
| COc1cccc2c1C(=O)c1c(O)c3c(c(O)c1C2=O)C[C@@](O)(C(=O)CO)C[C@@H]3O[C@H]1C[C@H](N)[C@H](O)[C@H](C)O1 [DOXORUBICIN] | – | – | – | – | 320 nM | 0.45 µM | 250 nM | – | – | – |
| CC(=O)OC[C@]12CC[C@H]3[C@@H](C[C@H]4O[C@]45CC=CC(=O)[C@]35C)[C@]1(O)CC[C@@]2(O)[C@@](C)(O)[C@H]1CC(C)=C(C)C(=O)O1 | 800 nM | – | – | 20 nM | 210 nM | 2.6 µM | 90 nM | > 3.1 µM | – | MTD [9]: 25 mg/kg; Tmax [10]: 15 min; TGI (LNCaP [11]): Dose-dependent effect; Drug uptake (Plasma [12]): Active; TGI (LNCaP [13]): Active; TGI (PC-3 [14]): Active; TGI (PC-3 [15]): Dose-dependent effect; Activity (Mus musculus [16]): Non-toxic; Activity (Mus musculus [17]): Non-toxic; Drug uptake (Serum): Active; Drug uptake (Plasma [18]): Not Active |
| CC(=O)OC[C@]12CC[C@H]3[C@@H](CC=C4CC=CC(=O)[C@@]43C)[C@]1(O)[C@@H](OC(C)=O)C[C@@]2(O)[C@@](C)(O)[C@H]1CC(C)=C(C)C(=O)O1 | 2000 nM | 1790 nM | 2720 nM | 440 nM | > 5000 nM | > 5 µM | 2000 nM | > 2.8 µM | 3580 nM | – |
| CC(=O)O[C@@]12CO[C@@H]1C[C@H](O)[C@@]1(C)C(=O)[C@H](O)C3=C(C)[C@@H](OC(=O)[C@H](O)[C@@H](NC(=O)OC(C)(C)C)c4ccccc4)C[C@@](O)([C@@H](OC(=O)c4ccccc4)[C@H]21)C3(C)C | – | – | – | – | – | – | – | – | – | TGI (PC-3 [19]): Active |
| CC(=O)OC[C@]12CC[C@H]3[C@@H](CC=C4CC=CC(=O)[C@@]43C)[C@]1(O)[C@@H](OC(C)=O)C[C@@]2(O)[C@@](C)(O)[C@H]1CC(CO)=C(C)C(=O)O1 | > 5000 nM | – | – | 3300 nM | > 5000 nM | > 5 µM | > 5000 nM | – | – | – |
| CC(=O)OC[C@]12CC[C@H]3[C@@H](C[C@@H]4O[C@@]45CC=CC(=O)[C@]35C)[C@]1(O)CC[C@@]2(O)[C@@](C)(O)[C@H]1CC(C)=C(C)C(=O)O1 | 2100 nM | – | – | 320 nM | 1200 nM | > 5 µM | 1200 nM | > 12 µM | – | – |
| CC(=O)OC[C@]12CC[C@H]3[C@@H](CC=C4C=CCC(=O)[C@@]43C)[C@]1(O)CC[C@@]2(O)[C@@](C)(O)[C@H]1CC(C)=C(C)C(=O)O1 | 3900 nM | 2400 nM | 3280 nM | 1100 nM | > 5000 nM | > 5 µM | 3100 nM | > 3.1 µM | 3520 nM | – |
| CC(=O)OC[C@]12CC[C@H]3[C@@H](CC=C4C=CCC(=O)[C@@]43C)[C@]1(O)[C@@H](OC(C)=O)C[C@@]2(O)[C@@](C)(O)[C@H]1CC(C)=C(C)C(=O)O1 | > 5000 nM | 620 nM | 1200 nM | 2000 nM | > 5000 nM | > 5 µM | > 5000 nM | > 5 µM | 1420 nM | – |
| CC1=C(CO)C(=O)O[C@@H]([C@@H](C)[C@H]2CC[C@H]3[C@@H]4C[C@H]5O[C@]56[C@@H](O)C=CC(=O)[C@]6(C)[C@H]4CC[C@]23C)C1 [WITHAFERIN A] | < 400 nM | – | – | 870 nM | 570 nM | < 0.4 µM | 410 nM | > 6.8 µM | – | – |
